Calls of active or inactive are those of the source. The calls are words filed in the database; no cut-off is given here.
What was measured:
[1] = system: alpha-glucosidase (Saccharomyces cerevisiae); experiment: Inhibition of alpha-glucosidase at 100 ug/ml after 30 mins
[2] = target: T1, Cytosolic beta-glucosidase (Homo sapiens) (UniProt Q9H227); experiment: Inhibition of beta-glucosidase at 100 ug/ml
T1 sequence (whole entry): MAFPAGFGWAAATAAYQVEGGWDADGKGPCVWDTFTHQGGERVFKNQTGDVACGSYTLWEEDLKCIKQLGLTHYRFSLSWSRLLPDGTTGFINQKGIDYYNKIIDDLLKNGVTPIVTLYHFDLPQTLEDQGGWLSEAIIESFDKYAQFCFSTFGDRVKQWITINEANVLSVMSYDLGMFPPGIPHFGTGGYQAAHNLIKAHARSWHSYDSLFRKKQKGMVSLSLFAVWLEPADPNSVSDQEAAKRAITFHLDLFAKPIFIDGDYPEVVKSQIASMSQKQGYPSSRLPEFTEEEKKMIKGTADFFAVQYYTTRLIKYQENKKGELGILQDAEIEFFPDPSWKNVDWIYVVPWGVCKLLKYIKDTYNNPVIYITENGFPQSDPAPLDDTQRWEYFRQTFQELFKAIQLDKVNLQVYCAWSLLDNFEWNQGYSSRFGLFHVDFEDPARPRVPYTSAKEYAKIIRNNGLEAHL

[3] = Inhibition of trypsin at 100 ug/ml
[4] = target: Prothrombin (Homo sapiens) (UniProt P00734); experiment: Inhibition of thrombin at 100 ug/ml
[5] = target: T2, Beta-galactosidase (Homo sapiens) (UniProt P16278); experiment: Inhibition of beta-galactosidase at 100 ug/ml
T2 sequence (whole entry): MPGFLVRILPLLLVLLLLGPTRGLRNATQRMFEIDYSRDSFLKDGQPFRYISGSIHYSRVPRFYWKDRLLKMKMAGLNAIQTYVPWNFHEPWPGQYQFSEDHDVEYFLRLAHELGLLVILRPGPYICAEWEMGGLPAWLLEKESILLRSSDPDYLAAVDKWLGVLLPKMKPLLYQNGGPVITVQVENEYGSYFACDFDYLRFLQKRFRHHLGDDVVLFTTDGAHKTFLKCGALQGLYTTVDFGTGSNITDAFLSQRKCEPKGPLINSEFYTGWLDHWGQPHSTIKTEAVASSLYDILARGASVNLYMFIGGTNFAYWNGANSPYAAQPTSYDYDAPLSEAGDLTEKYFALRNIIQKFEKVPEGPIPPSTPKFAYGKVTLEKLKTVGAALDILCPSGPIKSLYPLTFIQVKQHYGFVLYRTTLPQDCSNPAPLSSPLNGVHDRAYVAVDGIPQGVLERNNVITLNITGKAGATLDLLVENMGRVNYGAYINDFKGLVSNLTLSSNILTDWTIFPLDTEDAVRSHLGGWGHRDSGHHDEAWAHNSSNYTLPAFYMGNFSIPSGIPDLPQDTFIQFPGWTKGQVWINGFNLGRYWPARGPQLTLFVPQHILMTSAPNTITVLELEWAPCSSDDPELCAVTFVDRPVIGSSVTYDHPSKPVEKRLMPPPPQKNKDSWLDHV

Compound	Activity [1]	Activity [2]	Activity [3]	Activity [4]	Activity [5]
C#C/C=C\CCCC#CC#CCCCCCC/C=C\C#C	inactive				
C#C[C@@H](O)/C=C/CCCCCC#CC#CCCCC#CCCCC#CCCCCCC#CC(=O)O		inactive	inactive	inactive	inactive
C#C[C@@H](O)/C=C/CCCCCC#CC#CCCCC#CCCCC#CCCCCCC#CC(=O)OC	inactive				
